≈ marks a conversion by molar mass, not a printed value.
Key:
[1] = test system: Escherichia coli ATCC 25922; assay: MIC, growth inhibition in Mueller Hinton Broth; assay type: cell-based; conditions: ATCC25922, E. coli ATCC 25922, Gram-negative, read-out: Minimum Inhibitory Concentration E. coli ATCC 25922
[2] = molecular target: T1, Topoisomerase IV (Escherichia coli, UniProt P0AFI2); assay: Topoisomerase IV inhibition, gel electrophoresis method; assay type: biochemical; conditions: 37° C. for 30 min, read-out: Invitro IC50 Topoisomerase IV
T1 construct: purchased Inspiralis
T1 sequence (P0AFI2 whole entry): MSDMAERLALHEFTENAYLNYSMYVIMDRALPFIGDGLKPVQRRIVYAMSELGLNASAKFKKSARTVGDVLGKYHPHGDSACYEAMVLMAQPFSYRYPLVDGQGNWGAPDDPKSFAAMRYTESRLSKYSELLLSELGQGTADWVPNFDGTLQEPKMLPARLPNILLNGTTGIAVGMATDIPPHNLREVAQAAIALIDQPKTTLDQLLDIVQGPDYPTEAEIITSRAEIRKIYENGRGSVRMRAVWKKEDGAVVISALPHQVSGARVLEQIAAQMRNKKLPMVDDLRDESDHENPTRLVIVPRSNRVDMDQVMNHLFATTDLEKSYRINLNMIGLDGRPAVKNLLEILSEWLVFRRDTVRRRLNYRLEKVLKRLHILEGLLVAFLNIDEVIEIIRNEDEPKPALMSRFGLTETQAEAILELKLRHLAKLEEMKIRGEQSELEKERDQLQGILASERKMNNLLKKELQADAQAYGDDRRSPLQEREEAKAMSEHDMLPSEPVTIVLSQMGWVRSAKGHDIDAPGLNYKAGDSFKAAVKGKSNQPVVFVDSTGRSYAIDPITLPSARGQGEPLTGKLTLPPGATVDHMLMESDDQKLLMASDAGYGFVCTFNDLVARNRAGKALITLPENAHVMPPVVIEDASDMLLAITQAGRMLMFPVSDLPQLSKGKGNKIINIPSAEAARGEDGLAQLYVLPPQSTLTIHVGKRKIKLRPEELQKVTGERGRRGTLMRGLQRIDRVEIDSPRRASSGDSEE
T1 sequence (P20083 whole entry, further chain): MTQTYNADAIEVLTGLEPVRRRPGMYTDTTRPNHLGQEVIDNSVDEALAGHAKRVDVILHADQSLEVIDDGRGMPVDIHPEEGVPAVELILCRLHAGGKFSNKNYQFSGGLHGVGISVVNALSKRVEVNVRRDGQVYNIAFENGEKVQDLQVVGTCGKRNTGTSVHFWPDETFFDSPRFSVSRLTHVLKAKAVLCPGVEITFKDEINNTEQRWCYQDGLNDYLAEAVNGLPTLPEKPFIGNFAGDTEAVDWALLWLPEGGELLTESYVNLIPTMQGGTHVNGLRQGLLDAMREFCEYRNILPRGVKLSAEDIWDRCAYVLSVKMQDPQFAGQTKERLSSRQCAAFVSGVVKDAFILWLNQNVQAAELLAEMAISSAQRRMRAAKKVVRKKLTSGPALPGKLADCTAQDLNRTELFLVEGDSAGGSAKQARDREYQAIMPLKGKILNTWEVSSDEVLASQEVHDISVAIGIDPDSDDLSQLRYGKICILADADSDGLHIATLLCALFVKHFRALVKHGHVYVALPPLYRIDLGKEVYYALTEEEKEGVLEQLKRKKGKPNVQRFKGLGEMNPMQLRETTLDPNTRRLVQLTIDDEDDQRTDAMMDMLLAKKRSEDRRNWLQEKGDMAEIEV
Description: (§1) Evaluation of Topoisomerase II/IV inhibition using gel electrophoresis method: Topoisomerase II/IV (1 unit, Inspiralis) was added to a reaction mixture of DNA (pHOT/kDNA, Topogen) and ATP in appropriate buffers following which different concentrations of the test compounds were added and incubated at 37° C. for 30 min. The reaction was terminated after 30 minutes by the addition of stop buffer. The resulting DNA (relaxed, supercoiled or decatanated) was extracted using chloroform: isoamyl alcohol mixture and was separated using 1% agarose gel electrophoresis. Gel was stained with ethidium bromide for 20 minutes, washed with distilled water and the images were captured for further analysis. The band Intensities from the image were measured using Image J software and the half-maximal […] inhibitory concentration was deduced using Graphpad Prism.

[3] = molecular target: Topoisomerase II (UniProt P20831); assay: Topoisomerase II inhibition, gel electrophoresis method; assay type: biochemical; conditions: 37° C. for 30 min, read-out: Invitro IC50 Topoisomerase II
Sequence of Topoisomerase II (P20831 whole entry): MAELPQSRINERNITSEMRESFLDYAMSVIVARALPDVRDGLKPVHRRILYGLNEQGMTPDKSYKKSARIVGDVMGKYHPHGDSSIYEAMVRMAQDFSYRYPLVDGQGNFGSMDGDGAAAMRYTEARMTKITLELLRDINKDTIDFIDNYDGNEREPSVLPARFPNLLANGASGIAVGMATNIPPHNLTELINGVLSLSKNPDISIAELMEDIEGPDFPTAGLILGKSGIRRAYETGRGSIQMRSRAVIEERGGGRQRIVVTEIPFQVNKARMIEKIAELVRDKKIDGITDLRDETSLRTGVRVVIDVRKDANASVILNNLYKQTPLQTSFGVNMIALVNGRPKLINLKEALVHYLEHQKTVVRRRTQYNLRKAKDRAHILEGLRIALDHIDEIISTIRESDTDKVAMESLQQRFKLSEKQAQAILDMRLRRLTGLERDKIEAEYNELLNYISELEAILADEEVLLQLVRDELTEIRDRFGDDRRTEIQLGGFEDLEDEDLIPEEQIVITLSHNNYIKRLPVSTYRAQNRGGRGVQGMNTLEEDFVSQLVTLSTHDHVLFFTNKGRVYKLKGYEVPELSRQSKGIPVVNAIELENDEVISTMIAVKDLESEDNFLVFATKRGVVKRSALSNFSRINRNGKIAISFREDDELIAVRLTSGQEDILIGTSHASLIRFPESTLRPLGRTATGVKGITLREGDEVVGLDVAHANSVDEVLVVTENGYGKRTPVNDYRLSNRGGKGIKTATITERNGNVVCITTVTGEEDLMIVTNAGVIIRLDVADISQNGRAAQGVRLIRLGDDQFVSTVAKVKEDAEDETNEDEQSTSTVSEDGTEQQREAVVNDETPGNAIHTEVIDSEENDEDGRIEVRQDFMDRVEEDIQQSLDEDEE
Description: as §1

[4] = test system: Staphylococcus aureus ATCC 29213; assay: MIC, growth inhibition in Mueller Hinton Broth; assay type: cell-based; conditions: ATCC29213, S. aureus ATCC 29213, Gram positive, read-out: Minimum Inhibitory Concentration S. aureus ATCC 29213
[5] = test system: Staphylococcus aureus ZYABL 006; assay: MIC against fluoroquinolone resistant strain; assay type: cell-based; conditions: ZYABL006, quinolone resistant clinical strain, read-out: Minimum Inhibitory Concentration Staphylococcus aureus ZYABL 006
[6] = molecular target: T2, hERG channel (Homo sapiens, UniProt Q12809); assay: hERG binding study, FluxOR potassium ion channel assay; assay type: cell-based; conditions: hERG CHO cells, thallium flux, 20 min incubation
T2 construct: expressed in transfected cells; host or cells: CHO cells
T2 sequence (Q12809 whole entry): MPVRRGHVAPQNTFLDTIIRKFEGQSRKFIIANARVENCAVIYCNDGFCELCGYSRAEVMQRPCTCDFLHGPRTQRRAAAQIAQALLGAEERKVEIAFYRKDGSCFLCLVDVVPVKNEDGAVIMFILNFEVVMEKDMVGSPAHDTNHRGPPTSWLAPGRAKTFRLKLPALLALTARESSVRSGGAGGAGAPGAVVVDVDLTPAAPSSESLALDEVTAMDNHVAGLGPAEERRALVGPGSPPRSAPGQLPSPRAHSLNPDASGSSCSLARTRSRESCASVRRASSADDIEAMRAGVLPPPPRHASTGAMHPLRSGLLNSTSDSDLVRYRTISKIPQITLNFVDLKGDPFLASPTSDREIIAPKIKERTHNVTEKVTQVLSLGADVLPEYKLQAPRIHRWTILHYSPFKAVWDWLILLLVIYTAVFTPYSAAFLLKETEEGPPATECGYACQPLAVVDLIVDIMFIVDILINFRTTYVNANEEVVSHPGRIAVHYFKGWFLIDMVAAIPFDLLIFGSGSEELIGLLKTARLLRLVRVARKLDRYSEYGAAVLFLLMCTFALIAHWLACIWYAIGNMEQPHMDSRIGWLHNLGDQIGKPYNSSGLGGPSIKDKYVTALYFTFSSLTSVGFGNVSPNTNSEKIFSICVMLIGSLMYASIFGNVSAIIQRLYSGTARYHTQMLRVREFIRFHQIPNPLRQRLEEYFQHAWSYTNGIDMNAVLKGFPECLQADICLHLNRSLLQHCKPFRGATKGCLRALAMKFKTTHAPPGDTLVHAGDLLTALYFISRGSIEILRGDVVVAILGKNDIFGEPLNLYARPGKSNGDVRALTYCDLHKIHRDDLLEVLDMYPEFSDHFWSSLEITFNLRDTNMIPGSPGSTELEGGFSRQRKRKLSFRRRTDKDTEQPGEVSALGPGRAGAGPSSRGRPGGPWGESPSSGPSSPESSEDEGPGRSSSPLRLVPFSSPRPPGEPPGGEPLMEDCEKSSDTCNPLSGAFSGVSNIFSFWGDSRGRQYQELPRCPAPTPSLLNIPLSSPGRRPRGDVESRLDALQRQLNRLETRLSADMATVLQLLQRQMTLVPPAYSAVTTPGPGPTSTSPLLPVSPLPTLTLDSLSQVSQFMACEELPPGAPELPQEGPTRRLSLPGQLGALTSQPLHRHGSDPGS
Description: FluxOR™ Potassium Ion Channel Assay
Thallium flows down its concentration gradient into the cells, and channel activity is detected with indicator dye that increases in cytosolic fluorescence. Stably expressing hERG CHO cells are checked with test compounds for hERG liability. Compounds incubated for 20 min with cells then stimulation buffer was added and fluorescence measured on TECAN multimode reader. If test compound is inhibiting hERG channel then it will not allow the thallium to flows down in the cells. Vehicle control is considered as total hERG response while treatment with Astemizole as a total hERG channel inhibition and based on that test compounds hERG channel inhibition calculated.

[7] = test system: S. pnuemoniae ATCC6301; conditions: from WO 2018172925; cited from earlier work
[8] = test system: S. aureus-ATCC 29213; conditions: from WO 2018172925; cited from earlier work
[9] = test system: E. coli ATCC 25922; conditions: from WO 2018172925; cited from earlier work
[10] = test system: K pneumonia ATCC 700603; conditions: from WO 2018172925; cited from earlier work
[11] = test system: Moraxella catarrhalis ATCC8176; conditions: from WO 2018172925; cited from earlier work
[12] = test system: Enterococcus Faecalis ATCC29212; conditions: from WO 2018172925; cited from earlier work
[13] = test system: Mycobacterium tuberculosis; conditions: from WO 2008009700 / J. Med. Chem. 2014, 57, 4889-4905; cited from earlier work
[14] = test system: Enterococcus faecalis (ATCC700802); assay: MIC testing against broad panel of strains; conditions: ATCC700802, read-out: MIC Enterococcus faecalis (ATCC700802)
Description: (§2) The ability of the invention compounds disclosed herein to achieve an antibacterial effect may be evaluated with regard to their ability to inhibit the growth of bacterial species like Escherichia coli ATCC 25922, Staphylococcus aureus ATCC 29213 using an assay based on the following Minimum Inhibitory Concentration (MIC) protocol:
(§3) The test bacteria are grown in Muellor Hinton Broth (M1657)—MHB, 25 grams of the powder is dissolved in 1000 ml distilled water and sterilized by autoclaving at 15 lbs pressure (121° C.) for 20 minutes. The medium sterility is checked by incubating at 37° C. for a period of 48 h.
(§4) Bacterial cultures that are stored as glycerol stocks at −80° C. are sub cultured on LB agar plates to obtain isolated colonies. A single colony of each strain is cultured in LB broth. The cultures are incubated at 37° C., 200 rpm till they reach an optical density (OD at 600 nm) of 0.8 to 1. This log phase culture is diluted in LB broth to a cell number of 5-8*10^5 CFU/mL to be used as inoculum for MIC experiments.
(§5) Test compounds were diluted in their respective solvents and added to a final concentration ranging from 16 to 0.12 μg/ml in 150 μl MHB in 96 well plates.
(§6) Controls to monitor the effects of DMSO and media sterility are included. […] The following morning, the plates are read using a Spectrophotometer at 600 nm wavelength.

[15] = test system: Staphylococcus aureus (BAA38); assay: MIC testing against broad panel of strains; conditions: BAA38, read-out: MIC Staphylococcus aureus (BAA38)
Description: as §2, §3, §4, §5, §6

[16] = test system: Klebsiella pneumonia (ATCC35657); assay: MIC testing against broad panel of strains; conditions: Klebsiella pneumoniae, ATCC35657, read-out: MIC Klebsiella pneumonia (ATCC35657)
Description: as §2, §3, §4, §5, §6

[17] = test system: Staphylococcus pneumonia (ATCC700906); assay: MIC testing against broad panel of strains; conditions: ATCC700906, read-out: MIC Staphylococcus pneumonia (ATCC700906)
Description: as §2, §3, §4, §5, §6

[18] = test system: Mycobacterium tuberculosis H37Rv; assay: Mycobacterium tuberculosis H37Rv inhibition assay (MIC); assay type: cell-based
Description: Mycobacterium tuberculosis H37Rv Inhibition Assay
The measurement of the minimum inhibitory concentration (MIC) for each tested compound was performed in 96 wells flat bottom, polystyrene microtiter plates following standard protocol.

[19] = test system: Acinetobacter baumannii (BAA1605); assay: MIC testing against broad panel of strains; conditions: BAA1605, read-out: MIC Acinetobacter baumannii (BAA1605)
Description: as §2, §3, §4, §5, §6

[20] = test system: Escherichia coli (ATCC10536); assay: MIC testing against broad panel of strains; conditions: ATCC10536, read-out: MIC Escherichia coli (ATCC10536)
Description: as §2, §3, §4, §5, §6

Row | SMILES | MIC [1] | IC50 [2] | IC50 [3] | MIC [4] | MIC [5] | IC50 [6] | other results
1 | N#Cc1ccc2ccc(=O)n(CCN3CCC(NCc4ccc5c(c4)NC(=O)CO5)CC3)c2c1 [Example 2, 2-oxo-1-(2-(4-(((3-oxo-3,4-dihydro-2H-benzo[b][1,4]oxazin-6-yl)methyl)amino)piperidin-1-yl)ethyl)-1,2-dihydroquinoline-7-carbonitrile] | 0.25 µg/mL (≈ 0.546 µM) | 1300 nM | 3.4 nM | 0.25 µg/mL (≈ 0.546 µM) | < 0.125 µg/mL | > 10000 nM | –
2 | O=C1CSc2ccc(CNC3CCN(CCn4c(=O)ccc5ccc(F)cc54)CC3)cc2N1 [Example 5, 6-(((1-(2-(7-fluoro-2-oxoquinolin-1(2H)-yl)ethyl)piperidin-4-yl)amino)methyl)-2H-benzo[b][1,4]thiazin-3(4H)-one] | 0.25 µg/mL (≈ 0.536 µM) | 800 nM | 38.4 nM | 0.25 µg/mL (≈ 0.536 µM) | < 0.125 µg/mL | > 10000 nM | –
3 | N#Cc1ccc2ncc(=O)n(CCN3CCC(NCc4ccc5c(c4)NC(=O)CS5)CC3)c2c1 [Example 6, 3-oxo-4-(2-(4-(((3-oxo-3,4-dihydro-2H-benzo[b][1,4]thiazin-6-yl)methyl)amino)piperidin-1-yl)ethyl)-3,4-dihydroquinoxaline-6-carbonitrile] | < 0.125 µg/mL | – | – | < 0.125 µg/mL | – | – | –
4 | Cc1ccc(CNC2CCN(CCn3c(=O)ccc4ccc(C#N)cc43)CC2)cc1[N+](=O)[O-] [VT-03-00065] | – | – | – | – | – | – | MIC S. pnuemoniae ATCC6301 [7]: 4 µg/mL (≈ 8.98 µM); MIC S. aureus-ATCC 29213 [8]: 0.25 µg/mL (≈ 0.561 µM); MIC E. coli ATCC 25922 [9]: > 32 µg/mL; MIC K pneumonia ATCC 700603 [10]: > 32 µg/mL; MIC Moraxella catarrhalis ATCC8176 [11]: > 32 µg/mL; MIC Enterococcus Faecalis ATCC29212 [12]: > 32 µg/mL
5 | N#Cc1ccc2ccc(=O)n(CCN3CCC(NCc4cc5c(cn4)OCCO5)CC3)c2c1 [Example 54] | – | – | – | – | – | – | MIC against Mycobacterium tuberculosis [13]: 1 µM (≈ 0.446 µg/mL)
6 | N#Cc1ccc2ccc(=O)n(CCN3CCC(NCc4ccc5c(c4)OCCO5)CC3)c2c1 [Example 1, 1-(2-(4-(((2,3-dihydrobenzo[b][1,4]dioxin-6-yl)methyl)amino)piperidin-1-yl)ethyl)-2-oxo-1,2-dihydroquinoline-7-carbonitrile] | 0.5 µg/mL (≈ 1.12 µM) | 900 nM | 44 nM | 0.03 µg/mL (≈ 0.0675 µM) | < 0.125 µg/mL | > 30000 nM | –
7 | O=C1COc2ccc(CNC3CCN(CCn4c(=O)ccc5ccc(F)cc54)CC3)cc2N1 [Example 4, 6-(((1-(2-(7-fluoro-2-oxoquinolin-1(2H)-yl)ethyl)piperidin-4-yl)amino)methyl)-2H-benzo[b][1,4]oxazin-3(4H)-one] | < 0.125 µg/mL | 400 nM | 6.9 nM | < 0.125 µg/mL | < 0.125 µg/mL | > 10000 nM | –
8 | N#Cc1ccc2ccc(=O)n(CCN3CCC(NCc4ccc5c(c4)NC(=O)CS5)CC3)c2c1 [Example 3, 2-oxo-1-(2-(4-(((3-oxo-3,4-dihydro-2H-benzo[b][1,4]thiazin-6-yl)methyl)amino)piperidin-1-yl)ethyl)-1,2-dihydroquinoline-7-carbonitrile] | 0.125 µg/mL (≈ 0.264 µM) | 300 nM | 3.2 nM | 0.06 µg/mL (≈ 0.127 µM) | < 0.125 µg/mL | > 10000 nM | MIC [14]: 0.5 µg/mL (≈ 1.06 µM); MIC [15]: 0.125 µg/mL (≈ 0.264 µM); MIC [16]: 0.25 µg/mL (≈ 0.528 µM); MIC [17]: 0.125 µg/mL (≈ 0.264 µM); inhibition of Mycobacterium tuberculosis (in words) [18]: potent inhibition; MIC ([18]; Mycobacterium tuberculosis, H37RV, 96 well microtiter plates): 0.25 µM (≈ 0.118 µg/mL); MIC [19]: 0.25 µg/mL (≈ 0.528 µM); MIC [20]: 0.125 µg/mL (≈ 0.264 µM)
